Columns and labels:
cIAP1-BIR3 = target: T1, cIAP1-BIR3 (Homo sapiens, UniProt Q13490); assay: cIAP1-BIR3 fluorescence polarization binding assay; settings: FP, probe AbuRPFK-5FAM (SM5F) 5 nM, cIAP1-BIR3 15 nM, 60 min at 25° C.
T1 construct: cIAP1-BIR3; purchased Reaction Biology APT-11-370
Method in brief: (§1)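 Fluorescence polarization competition using 5-carboxyfluorescein-labelled peptide probe AbuRPFK-5FAM; protein and compound preincubated 15 min, probe added, then 60 min at 25° C.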

cIAP2-BIR3 = target: T2, cIAP2-BIR3 (Homo sapiens, UniProt Q13489); assay: cIAP2-BIR3 fluorescence polarization binding assay; settings: FP, probe AbuRPFK-5FAM (SM5F) 5 nM, cIAP2-BIR3 80 nM, 60 min at 25° C.
T2 construct: cIAP2-BIR3; purchased Reaction Biology APT-11-372
Method in brief: as §1

XIAP-BIR3 = target: T3, XIAP-BIR3 (Homo sapiens, UniProt P98170); assay: XIAP-BIR3 fluorescence polarization binding assay; settings: FP, probe AbuRPFK-5FAM (SM5F) 5 nM, XIAP-BIR3 40 nM, 60 min at 25° C.
T3 construct: XIAP-BIR3; purchased Reaction Biology APT-11-374
Method in brief: as §1

T2 sequence (Q13489 238-349 limits assumed): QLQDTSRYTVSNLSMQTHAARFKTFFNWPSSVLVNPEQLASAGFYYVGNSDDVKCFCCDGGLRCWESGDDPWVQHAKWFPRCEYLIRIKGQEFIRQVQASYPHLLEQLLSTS
T3 sequence (P98170 241-356 limits assumed): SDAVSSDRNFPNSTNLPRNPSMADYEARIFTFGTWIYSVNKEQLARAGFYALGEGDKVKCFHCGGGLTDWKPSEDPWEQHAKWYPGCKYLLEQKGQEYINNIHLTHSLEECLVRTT
T1 sequence (Q13490 253-363 limits assumed): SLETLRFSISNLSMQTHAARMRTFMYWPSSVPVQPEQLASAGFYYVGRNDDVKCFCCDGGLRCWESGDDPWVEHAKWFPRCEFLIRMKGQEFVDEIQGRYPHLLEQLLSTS

SMILES | IC50 (cIAP1-BIR3) [nM] | IC50 (cIAP2-BIR3) [nM] | IC50 (XIAP-BIR3) [nM]
CN[C@@H](C)C(=O)NC(C(=O)N1CCC[C@H]1C(=O)N[C@@H]1CCCc2cc(N3CCN(c4ccc5c(c4)CCC[C@H]5NC(=O)[C@@H]4CCCN4C(=O)[C@@H](NC(=O)[C@H](C)NC)C4CCCCC4)CC3)ccc21)C1CCCCC1 (stereo partly drawn) [VIII-B, (2S)-1-[(2S)-2-cyclohexyl-2-[(2S)-2-(methylamino)propanamido]acetyl]-N-[1(1R)-6-[4-[(5R)-5-[(2S)-1-[(2S)-2-cyclohexyl-2-[(2S)-2-(methylamino)propanamido]acetyl]pyrrolidine-2-amido]-5,6,7,8-tetrahydronaphthalen-2-yl]piperazin-1-yl]-1,2,3,4-tetrahydronaphthalen-1-yl]pyrrolidine-2-carboxamide] | 10 to 100 | 100 to 1000 | > 1000
CN[C@@H](C)C(=O)N[C@H](C(=O)N1CCC[C@H]1C(=O)N[C@@H]1CCOc2c(-c3cccc4c3OCC[C@H]4NC(=O)[C@@H]3CCCN3C(=O)[C@@H](NC(=O)[C@H](C)NC)C(C)(C)C)cccc21)C(C)(C)C [Compound V-D, (2S)-1-[(2S)-3,3-dimethyl-2-[(2S)-2-(methylamino)propanamido]butanoyl]-N-[(4R)-8-[(4R)-4-[(2S)-1-(2S)-3,3-dimethyl-2-[(2S)-2-(methylamino)propanamido]butanoyl]pyrrolidine-2-amido]-3,4-dihydro-2H-1-benzopyran-8-yl-3,4-dihydro-2H-1-benzopyran-4-yl]pyrrolidine-2-carboxamide] | 1 to 10 | 10 to 100 | 10 to 100
CC[C@H](NC(=O)[C@H](C)NC)C(=O)N1CCC[C@H]1C(=O)N[C@@H]1CCCc2c(-c3cccc(-c4cccc5c4CCC[C@H]5NC(=O)[C@@H]4CCCN4C(=O)[C@H](CC)NC(=O)[C@H](C)NC)c3)cccc21 [III-D, (2S)-1-[(2S)-2-[(2S)-2-(methylamino)propanamido]butanoyl]-N-[(1R)-5-[3-[(5R)-5-[(2S)-1-[(2S)-2-[(2S)-2-(methylamino)propanamido]butanoyl]pyrrolidine-2-amido]-5,6,7,8-tetrahydronaphthalen-1-yl]phenyl]-1,2,3,4-tetrahydronaphthalen-1-yl]pyrrolidine-2-carboxamide] | 1 to 10 | 10 to 100 | 10 to 100
CN[C@@H](C)C(=O)N[C@H](C(=O)N1CCC[C@H]1C(=O)N[C@@H]1CCCc2ccc(N3CCN(c4ccc5c(c4)[C@H](NC(=O)[C@@H]4CCCN4C(=O)[C@@H](NC(=O)[C@H](C)NC)C4CCCCC4)CCC5)CC3)cc21)C1CCCCC1 [VIII-A, (2S)-1-[(2S)-2-cyclohexyl-2-[(2S)-2-(methylamino)propanamido]acetyl]-N-[(1R)-7-[4-[(8R)-8-[(2S)-1-[(2S)-2-cyclohexyl-2-[(2S)-2-(methylamino)propanamido]acetyl]pyrrolidine-2-amido]-5,6,7,8-tetrahydronaphthalen-2-yl]piperazin-1-yl]-1,2,3,4-tetrahydronaphthalen-1-yl]pyrrolidine-2-carboxamide] | 10 to 100 | 100 to 1000 | > 1000
CC[C@H](NC(=O)[C@H](C)NC)C(=O)N1CCC[C@H]1C(=O)N[C@@H]1CCCc2c(Nc3cccc4c3CCC[C@H]4NC(=O)[C@@H]3CCCN3C(=O)[C@H](CC)NC(=O)[C@H](C)NC)cccc21 [Compound VI-C, (2S,2'S)—N,N′-((1R,1′R)-azanediylbis(1,2,3,4-tetrahydronaphthalene-5,1-diyl))bis(1-((S)-2-((S)-2-(methylamino)propanamido)butanoyl)pyrrolidine-2-carboxamide)] | 1 to 10 | 10 to 100 | 10 to 100
CN[C@@H](C)C(=O)N[C@H](C(=O)N1CCC[C@H]1C(=O)N[C@@H]1CCCc2c(-c3cccc(-c4cccc5c4CCC[C@H]5NC(=O)[C@@H]4CCCN4C(=O)[C@@H](NC(=O)[C@H](C)NC)C(C)(C)C)c3)cccc21)C(C)(C)C [Compound III-F, (2S)-1-[(2S)-3,3-dimethyl-2-[(2S)-2-(methylamino)propanamido]butanoyl]-N-[(1R)-5-[3-[(5R)-5-[(2S)-1-[(2S)-3,3-dimethyl-2-[(2S)-2-(methylamino)propanamido]butanoyl]pyrrolidine-2-amido]-5,6,7,8-tetrahydronaphthalen-1-yl]phenyl]-1,2,3,4-tetrahydronaphthalen-1-yl]pyrrolidine-2-carboxamide] | 1 to 10 | 10 to 100 | 10 to 100
CN[C@@H](C)C(=O)N[C@H](C(=O)N1CCC[C@H]1C(=O)N[C@@H]1CCc2c(OCCOCCOc3cccc4c3CC[C@H]4NC(=O)[C@@H]3CCCN3C(=O)[C@@H](NC(=O)[C@H](C)NC)C3CCCCC3)cccc21)C1CCCCC1 [Compound II-F, (2S)-1-[(2S)-2-cyclohexyl-2-[(2S)-2-(methylamino)propanamido]acetyl]-N-[(1R)-4-[2-(2-[[(1R)-1-[(2S)-1-[(2S)-2-cyclohexyl-2-[(2S)-2-(methylamino)propanamido]acetyl]pyrrolidine-2-amido]-2,3-dihydro-1H-inden-4-yl]oxy]ethoxy)ethoxy]-2,3-dihydro-1H-inden-1-yl]pyrrolidine-2-carboxamide] | 1 to 10 | 10 to 100 | 10 to 100
CN[C@@H](C)C(=O)N[C@H](C(=O)N1CCC[C@H]1C(=O)N[C@@H]1CCCc2c(-c3cccc4c3CCC[C@H]4NC(=O)[C@@H]3CCCN3C(=O)[C@@H](NC(=O)[C@H](C)NC)C(C)C)cccc21)C(C)C [Compound V-M, (2S)-1-[(2S)-3-methyl-2-[(2S)-2-(methylamino)propanamido]butanoyl]-N-[(5R,5′R)-5′-[(2S)-1-[(2S)-3-methy-2-[(2S)-2-(methylamino)propanamido]butanoyl]pyrolidine-2-amido]-5H,5′H,6H,6′H,7H,7′H,8H,8′H-[1,1′-binaphthalen]-5-yl]pyrrolidine-2-carboxamide] | 1 to 10 | 1 to 10 | 10 to 100
CN[C@@H](C)C(=O)N[C@H](C(=O)N1CCC[C@H]1C(=O)N[C@@H]1CCOc2c(-c3cccc4c3OCC[C@H]4NC(=O)[C@@H]3CCCN3C(=O)[C@@H](NC(=O)[C@H](C)NC)C3CC3)cccc21)C1CC1 [Compound V-E, (2S)-1-[(2S)-2-cyclopropyl-2-[(2S)-2-(methylamino)propanamido]acetyl]-N-[(4R)8-[(4R)-4-[(2S)-1-[(2S)-2-cyclopropyl-2-[(2S)-2-(methylamino)propanamido]acetyl]pyrrolidine-2-amido]-3,4-dihydro-2H-1-benzopyran-8-yl]-3,4-dihydro-2H-1-benzopyran-4-yl]pyrrolidine-2-carboxamide] | 1 to 10 | 10 to 100 | 10 to 100
CN[C@@H](C)C(=O)N[C@H](C(=O)N1CCC[C@H]1C(=O)N[C@@H]1CCCc2c(NC(=O)c3cccc4c3CCC[C@H]4NC(=O)[C@@H]3CCCN3C(=O)[C@@H](NC(=O)[C@H](C)NC)C(C)C)cccc21)C(C)C [VII-A, (2S)-1-[(2S)-3-methyl-2-[(2S)-2-(methylamino)propanamido]butanoyl]-N-[(1R)-5-[[(5R)-5-[(2S)-1-[(2S)-3-methyl-2-[(2S)-2-(methylamino)propanamido]butanoyl]pyrrolidine-2-amido]-5,6,7,8-tetrahydronaphthalen-1-yl]carbamoyl]-1,2,3,4-tetrahydronaphthalen-1-yl]pyrrolidine-2-carboxamide] | 1 to 10 | 1 to 10 | 10 to 100
CN[C@@H](C)C(=O)N[C@H](C(=O)N1CCC[C@H]1C(=O)N[C@@H]1CCCc2c(OCCOCCOc3cccc4c3CCC[C@H]4NC(=O)[C@@H]3CCCN3C(=O)[C@@H](NC(=O)[C@H](C)NC)C3CCCCC3)cccc21)C1CCCCC1 [Compound II, (2S)-1-[(2S)-2-Cyclohexyl-2-[(2S)-2-(methylamino)propanamido]acetyl]-N-[(1R)-5-[2-(2-[[(5R)-5-[(2S)-1-[(2S)-2-cyclohexyl-2-[(2S)-2-(methylamino)propanamido]acetyl]pyrrolidine-2-amido]-5,6,7,8-tetrahydronaphthalen-1-yl]oxy]ethoxy)ethoxy]-1,2,3,4-tetrahydmnaphthalen-1-yl]pyrrolidine-2-carboxamide] | 1 to 10 | 1 to 10 | 10 to 100
CN[C@@H](C)C(=O)N[C@@H](C)C(=O)N1CCC[C@H]1C(=O)N[C@@H]1CCCc2c(OCCCCCOc3cccc4c3CCC[C@H]4NC(=O)[C@@H]3CCCN3C(=O)[C@H](C)NC(=O)[C@H](C)NC)cccc21 [Compound I-C, (2S)-1-[(2S)-2-[(2S)-2-(methylamino)propanamido]popanoyl]-N-[(1R)-5-[(5-[[(5R)-5-[(2S)-1-[(2S)-2-[(2S)-2-(methylamino)propanamido]propanoyl]pyrrolidine-2-amido]-5,6,7,8-tetrahydmnaphthalen-1-yl]oxy]pentyl)oxy]-1,2,3,4-tetrahydronaphthalen-1-yl]pyrrolidine-2-carboxamide] | 1 to 10 | 10 to 100 | 100 to 1000
CC[C@H](NC(=O)[C@H](C)NC)C(=O)N1CCC[C@H]1C(=O)N[C@@H]1CCc2c(-c3cccc4c3CC[C@H]4NC(=O)[C@@H]3CCCN3C(=O)[C@H](CC)NC(=O)[C@H](C)NC)cccc21 [Compound V-O, (2S,2'S)—N,N′-((1R,1′R)-2,2′,3,3′-tetrahydro-1H,1′H-[4,4′-biindene]-1,1′-diyl)bis(1-((S)-2-((S)-2-(methylamino)propanamido)butanoyl)pyrrolidine-2-carboxamide)] | 1 to 10 | 10 to 100 | 10 to 100

Reference: US20220220152A1, “BIVALENT ANTAGONISTS OF INHIBITORS OF APOPTOSIS PROTEINS” (Hepagene Therapeutics (HK) Limited, priority 2019, published 2022)
